What was measured:
NCIH 460 cells = experiment: Anti-cancer screen (MTT), NCIH460; assay type: cell-based; parameters: NCIH460 TGI: unit: uM; settings: for GI50: concentration to decrease % growth by 50%; for IC100: read-out: NCIH460 TGI; for LC50: concentration to decrease % growth by 150%
Method: (§1) Experimental drugs are screened for anti-cancer activity in three cell lines for their GI50, TGI and LC50 values (using five concentrations for each compound). The cell lines are maintained in DMEM containing 10% fetal bovine serum. 96 well micro titer plates are inoculated with cells in 100 μL for 24 h at 37° C., 5% CO2, 95% air and 100% relative humidity. 5000 HCT 116 cells/well, 5000 NCIH 460 cells/well and 5000 U251 cells/well are plated. A separate plate with these cell lines is also inoculated to determine cell viability before the addition of the compounds (T0).
(§2) Following 24-hour incubation, experimental drugs are added to the 96 well plates. Each plate contains one of the above cell lines and the following in triplicate: five different concentrations (0.01, 0.1, 1, 10 and 100 μM) of four different compounds, appropriate dilutions of a cytotoxic standard and control (untreated) wells. Compounds are dissolved in DMSO to make 20 mM stock solutions on the day of drug addition and frozen at −20° C. Serial dilutions of these 20 mM stock solutions are made in complete growth medium such that 100 μL of these drug solutions in medium, of final concentrations equaling 0.01, 0.1, 1, 10 and 100 μM can be added to the cells in triplicate. Standard drugs whose anti-cancer activity has been well documented and which are regularly used are doxorubicin and SAHA.
(§3) For To measurement, 24 hours after seeding the cells, 10 μL of 3-(4,5-Dimethyl-2-thiazolyl)-2,5-diphenyl-2H-tetrazolium (MTT) solution per well is added and incubation carried out for 3 hours at 37° C., 5% CO2, 95% air and 100% relative humidity, protected from light. Cells incubated with compounds for 48 hours are treated similarly except with the addition of 20 μL MTT solution per well and a subsequent incubation under the same conditions. After 3 hours of MTT incubation, well contents are aspirated carefully followed by addition of 150 μL DMSO per well. Plates are agitated to ensure solution of the formazan crystals in DMSO and absorbance read at 570 nm. […]

HCT 116 cells = experiment: Anti-cancer screen (MTT), HCT116; assay type: cell-based; parameters: HCT116 TGI: unit: uM; settings: for GI50: concentration to decrease % growth by 50%; for IC100: read-out: HCT116 TGI; for LC50: concentration to decrease % growth by 150%
Method: as §1, §2, §3

MDAMB231/U251 = experiment: Anti-cancer screen (MTT), MDAMB231/U251; assay type: cell-based; parameters: MDAMB231/U251 TGI: unit: uM; settings: MDAMB231/U251 cells, 48 hours; for GI50: concentration to decrease % growth by 50%; for IC100: read-out: MDAMB231/U251 TGI; for LC50: concentration to decrease % growth by 150%
Method: as §1, §2, §3

[1] = test system: NCIH460, HCT116, MDAMB231/U251; experiment: Anti-cancer screen, mean GI50 over the cell lines; assay type: cell-based; settings: in µM
Method: as §1, §2, §3

[2] = test system: HDAC (Mouse Liver Extract); experiment: Histone Deacetylase (HDAC) Inhibition Assay using Boc-Lys (Ac)-AMC Substrate; assay type: biochemical; settings: mouse liver enzyme, NA = No Activity, in % (unit assumed)
Description: HDAC Activitv Screening: Histone Deacetylase (HDAC) Inhibition Assay using Boc-Lys (Ac)-AMC Substrate:
Inhibition of HDAC has been implicated to modulate transcription and to induce apoptosis or differentiation in cancer cells. The fluorometric assay provides a fast and fluorescence based method that eliminates radioactivity, extractions or chromatography, as used in traditional assays. The assay based on two steps. First, the HDAC fluorometric substrate, which comprises an acetylated lysine side chain, is incubated with a sample containing HDAC activity (Mouse Liver Extract). Deacetylation of the substrate sensitizes the substrate, in the second step; treatment with the Trypsin stop solution produces a fluorophore that can be easily analyzed using fluorescence plate reader.
Assay was done in 96 well black microplate and total volume of the assay is 100 ul. Mouse liver enzyme is diluted 1:6 with HDAC buffer. Enzyme cocktail made of 10 ul of diluted enzyme and 30 ul of HDAC buffer. 40 ul of enzyme cocktail dispensed into each well. 10 ul of different concentrations of inhibitor added in to each well, except enzyme control well. Preincubated the plate at 30° C. for 5 minutes. The HDAC reaction is started by adding 50 ul of HDAC substrate (Boc-Lys (Ac)-AMC Substrate) solution. Incubated the plate at 30° C. for 30 minutes. Adding 100 ul of Trypsin stop solution stops the reaction. The plate is incubated again at 30° C. for 20-30 minutes. The release of AMC is monitored by measuring the fluorescence at excitation wavelength of 365 or 360 nm and emission wavelength of 440 or 460 nm. Buffer and substrate alone kept for blank subtraction. (Dennis Wegener et al, Anal. Biochem, 321, 2003, 202-208).

[3] = Homo sapiens, NCI-H460, NCIH460 cells, 48 hours, MTT
[4] = Homo sapiens, NCI-H460, NCIH460 cells, 48 hours, MTT, concentration to decrease % growth by 100%
[5] = Homo sapiens, HCT-116, HCT116 cells, 48 hours, MTT
[6] = Homo sapiens, HCT-116, HCT116 cells, 48 hours, MTT, concentration to decrease % growth by 100%
[7] = concentration to decrease % growth by 100%

SMILES	GI50 (NCIH 460 cells; [3])	IC100 (NCIH 460 cells; [4])	LC50 (NCIH 460 cells; [3])	GI50 (HCT 116 cells; [5])	IC100 (HCT 116 cells; [6])	LC50 (HCT 116 cells; [5])	GI50 (MDAMB231/U251)	IC100 (MDAMB231/U251; [7])	LC50 (MDAMB231/U251)	Mean GI50 [1]	HDAC Inhibition 1 μM [2]	HDAC Inhibition 10 μM [2]	CC50 (NCIH 460 cells)	GI50 (NCIH 460 cells; NCIH460 cells, 48 hours, MTT)	NCIH460 TGI (NCIH 460 cells; NCIH460 cells, 48 hours, MTT, concentration to decrease % growth by 100%)	CC50 (HCT 116 cells)	GI50 (HCT 116 cells; HCT116 cells, 48 hours, MTT)	HCT116 TGI (HCT 116 cells; HCT116 cells, 48 hours, MTT, concentration to decrease % growth by 100%)	MDAMB231/U251 TGI (MDAMB231/U251; [7])
Cc1csc(NC(=O)CN2CCN(C(=O)CCCCCCC(=O)NO)CC2)n1 [Example 33, 8-{4-[2-(4-Methyl-1,3-thiazol-2-ylamino)-2-oxoethyl]piperazin-1-yl}-N-hydroxy-8-oxo octanamide]	90 µM	> 100 µM	> 100 µM	55 µM	> 100 µM	> 100 µM	10 µM	98 µM	> 100 µM	51.67	50.09	92.38	–	–	–	–	–	–	–
CCOc1ccc2nc(NC(=O)CN3CCN(C(=O)CCCCCCC(=O)N(O)C(C)=O)CC3)sc2c1 [Example 37, 8-{4-[2-(6-Ethoxy-1,3-benzothiazol-2-ylamino)-2-oxoethyl]piperazin-1-yl}-N-acetyl-N-hydroxy-8-oxooctanamide]	40 µM	74 µM	> 100 µM	7 µM	44 µM	> 100 µM	4 µM	45 µM	95 µM	17.00	55.57	94.70	–	–	–	–	–	–	–
CCOc1ccc2nc(NC(=O)CN3CCN(C(=O)CCCCCCC(=O)NO)CC3)sc2c1 [Example 32, 8-{4-[2-(6-Ethoxy-1,3-benzothiazol-2-ylamino)-2-oxoethyl]piperazin-1-yl}-N-hydroxy-8-oxo octanamide]	–	–	–	–	–	–	1.5 µM	–	98 µM	15.50	60.30	98.91	> 100 µM	38 µM	72	95 µM	7 µM	42	9.5
CC(=O)SCCCCCC(=O)N1CCN(CC(=O)Nc2ccccc2)CC1 [Example 18, 2-[4-(6-Thioacetylhexanoyl)piperazin-1-yl]-N-(phenyl-2-yl)acetamide]	30 µM	> 100 µM	> 100 µM	63 µM	> 100 µM	> 100 µM	> 100 µM	> 100 µM	> 100 µM	46.50	65.15	94.50	–	–	–	–	–	–	–
CC(=O)SCCCCC(=O)N1CCN(CC(=O)Nc2nc(C(C)(C)C)cs2)CC1 [Example 14, 2-[4-(5-Thioacetylpentanoyl)piperazin-1-yl]-N-(4-tertiarybutyl-1,3-thiazol-2-yl)acetamide]	> 100 µM	> 100 µM	> 100 µM	50 µM	> 100 µM	> 100 µM	0.08 µM	27 µM	> 100 µM	>100	23.11	57.33	–	–	–	–	–	–	–

Reference: patent US20070088043A1, “Novel HDAC inhibitors” (ORCHID RESEARCH LABORATORIES LIMITED., priority 2005, published 2007)
